Source: the NIST ThermoML archive (doi:10.1021/acs.jced.7b01128)
“And” between values parts separate entries of the source, which are not always exact repeats. Equal values may be shown once.

Key:
[1] = Liquid, Ebulliometric method (Recirculating still)
[2] = refractive index (Na D-line) (dimensionless); details: 101.33 kPa, Liquid, Standard Abbe refractometry

CC(C)CCO [3-methylbutan-1-ol]
Details | refractive index, 298.15 K | vapor or sublimation pressure, 343.15 K [kPa] | vapor or sublimation pressure, 386.05 K [kPa] | vapor or sublimation pressure, 392.15 K [kPa] | vapor or sublimation pressure, 397.15 K [kPa] | vapor or sublimation pressure, 403.95 K [kPa]
[1] | – | 7.73 | 53.33 | 66.66 | 79.99 | 101.05
[2] | 1.403 | – | – | – | – | –

CCCCO [butan-1-ol]
Details | refractive index, 298.15 K | vapor or sublimation pressure, 353.15 K [kPa] | vapor or sublimation pressure, 363.15 K [kPa] | vapor or sublimation pressure, 366.75 K [kPa] | vapor or sublimation pressure, 373.15 K [kPa] | vapor or sublimation pressure, 379.55 K [kPa] | vapor or sublimation pressure, 383.15 K [kPa] | vapor or sublimation pressure, 384.35 K [kPa] | vapor or sublimation pressure, 390.75 K [kPa]
[1] | – | 21.73 | 34.13 | 39.99 | 51.86 | 66.66 | 76.52 | 79.99 | 100.78
[2] | 1.397 | – | – | – | – | – | – | – | –

C1COCCN1 [tetrahydro-1,4-oxazine]
Details | refractive index | vapor or sublimation pressure
[1], 343.15 K | – | 13.06 kPa
[1], 353.15 K | – | 19.73 kPa
[1], 363.15 K | – | 28.93 kPa
[1], 372.15 K | – | 39.99 kPa
[1], 373.15 K | – | 41.32 kPa
[1], 380.75 K | – | 53.33 kPa
[1], 383.15 K | – | 57.86 kPa
[1], 387.55 K | – | 66.66 kPa
[1], 393.35 K | – | 79.99 kPa
[1], 393.45 K | – | 79.99 kPa
[1], 401.15 K | – | 101.05 kPa and 100.78 kPa
[2], 293.15 K | 1.455 | –
